{
  "source": "paper PMC2213263",
  "about": "(The Journal of Experimental Medicine, 2005)",
  "system": "PBMCs and HCV peptide-specific T cell lines from HCV-infected subjects",
  "format": "cell-based, human",
  "data": [
    {"substance": "HSKRKCDEL", "values": [
      {"measurement": "T cell response to peptide, in words", "result": "no detectable response"}
    ]},
    {"substance": "phytohemagglutinin", "values": [
      {"measurement": "response to positive control", "result": "uniformly positive"}
    ]}
  ]
}
